Data taken from patent US5227398A, “Benzodioxole derivatives and hepatopathy improvers comprising the same” (Tsumura & Co., priority 1990, dated 1993).
Structures can show the parent of a compound that is named as a salt.

Key:
[1] = test system: CCl4 -induced hepatopath rats; experiment: Hepatopathy improving effects for CCl4-induced hepatopath rats (inhibition to the increase of transaminase in serum); type: in vivo; conditions: SD male rats, 100 mg/kg oral, 30 min before CCl4 (diluted fourfold with olive oil, peritoneally, 4 mg/kg), blood after 24 hours; for Serum GPT: Control 1 (no CCl4) 20, Control 2 (CCl4 alone) 1071; for Serum GOT: Control 1 (no CCl4) 89, Control 2 (CCl4 alone) 7719
Experimental: The hepatopathy improving effects of the compounds (I') of this invention for CCl4 -induced hepatopath rats were investigated by using, as an index, the inhibition to the increase of transaminase in serum. After SD male rats (7 weeks old; Japanese Charles River) had been fasted for 24 hours, test drugs were orally administered at 100 mg/kg. Thirty minutes later, a CCl4 solution (diluted fourfold with olive oil) was peritoneally administered at 4 mg/kg. The rats were fasted further for 24 hours and then anesthetized with 1 ml/kg of sodium pentobarbital. After a blood sample was collected from the descending abdominal aorta of each rat, the liver was enucleated and its wet weight was measured. Further, the GOT and GPT of a serum, which had been obtained from the blood sample so collected, were measured by an automatic chemical analyzer ("TBA-380", trade name; manufactured by Toshiba Corp.). Thick serums were measured after dilution in distilled water.
Note: Control 1 is a group not administered with CCl4 while Control
is a group administered with CCl4 alone.

hepatopath = conditions: previously found by the present assignee; cited from earlier work

For `c1csc(=Nc2ccc3c(c2)OCO3)s1` [Example 1, N,N-(1,3-dithiol-2-ylidene)-1,3-benzodioxol-5-amine], the “Serum GPT” value [1] was 74 U/1 and the “Serum GOT” value [1] was 432 U/1.

For `CC(C)OC(=O)C(C(=O)c1ccc2c(c1)OCO2)=C1SC=CS1` [Example 2, isopropyl 2-(1,3-dithiol-2-ylidene)-3-[3,4-(methylenedioxy)phenyl]-3-oxopropionate], the “Serum GPT” value [1] was 100 U/1 and the “Serum GOT” value [1] was 563 U/1.

For `CC(C)OC(=O)C(=C1SC=CS1)c1ccc2c(c1)OCO2` [Example 3, isopropyl 2-(1,3-dithiol-2-ylidene)-2-[3,4-(methylenedioxy)phenyl]acetate], the “Serum GPT” value [1] was 557 U/1 and the “Serum GOT” value [1] was 2573 U/1.

In the case of `CSCC(N)C(=O)Nc1ccc2c(c1)OCO2` (stereo not shown) [Example 5, [(3,4-methylenedioxy)aniline]-S-methylcysteinamide hydrochloride], the “Serum GPT” value [1] is reported as 57 U/1 and the “Serum GOT” value [1] is reported as 391 U/1.

In the case of `CSC(=S)Nc1ccc2c(c1)OCO2` [Synthesis Example 1, methyl N-(3,4-methylenedioxyphenyl)dithiocarbamate], the “Serum GPT” value [1] is reported as 230 U/1 and the “Serum GOT” value [1] is reported as 1027 U/1.

In the case of `COC(=O)CNc1ccc2c(c1)OCO2` [Synthesis Example 2, methyl 2-[N-(3,4-methylenedioxyphenyl)amino]acetate], the “Serum GPT” value [1] is reported as 310 U/1 and the “Serum GOT” value [1] is reported as 1400 U/1.

For `COc1cc2c(c(OC)c1OC)-c1c(cc3c(c1OC)OCO3)CC(C)C(C)(O)C2` (stereo not shown) [gomisin A], the “improvement of GPT and GOT value of a hepatopath” value (hepatopath) is listed as “can promptly improve the GPT and GOT value of a hepatopath”.
